The target in assay [1] is T1, cynomolgus monkey C17,20 lyase (Macaca fascicularis, UniProt Q2XVA1).
T1 construct: microsomal preparations of the enzyme from testicular tissue; from tissue; host or cells: cynomolgus monkey testes, microsomes
T1 sequence (Q2XVA1 1-508): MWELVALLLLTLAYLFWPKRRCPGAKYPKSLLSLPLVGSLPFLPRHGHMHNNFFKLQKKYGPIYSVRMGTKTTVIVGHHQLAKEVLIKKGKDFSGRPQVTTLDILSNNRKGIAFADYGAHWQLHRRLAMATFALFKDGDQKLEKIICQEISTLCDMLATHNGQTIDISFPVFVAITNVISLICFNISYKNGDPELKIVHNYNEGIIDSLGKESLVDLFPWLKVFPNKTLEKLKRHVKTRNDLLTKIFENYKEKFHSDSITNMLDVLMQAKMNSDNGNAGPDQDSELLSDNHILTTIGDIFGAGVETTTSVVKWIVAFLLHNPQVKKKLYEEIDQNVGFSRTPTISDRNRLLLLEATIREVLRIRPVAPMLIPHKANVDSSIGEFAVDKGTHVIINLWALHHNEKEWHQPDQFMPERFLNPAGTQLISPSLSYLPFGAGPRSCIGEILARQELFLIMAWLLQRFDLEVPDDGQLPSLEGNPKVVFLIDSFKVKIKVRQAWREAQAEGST
The assay is described as follows: In vitro C17,20 lyase assay, testicular microsomes. It counts as biochemical. Particulars: mean of duplicates. The procedure:
In vitro C17,20 lyase assays: Compounds were tested for inhibition of cynomolgus monkey C17,20 lyase in vitro using microsomal preparations of the enzyme from testicular tissue. Testes were removed from anesthetized animals and flash frozen in liquid nitrogen. Microsomes were isolated as described in Schatzman et al., Anal. Biochem. 175, 219-226 (1988). The compound to be tested was dissolved in dimethyl sulfoxide and diluted in 0.05 M potassium phosphate buffer, pH 7.4, to give the desired concentrations of test compound, in an amount which contributed 0.1% v/v DMSO to the total assay volume. Assays contained 0.05 M potassium phosphate buffer, pH 7.4, an NADPH regenerating system (1 mM NADPH, 5 mM glucose-6-phosphate, 1 IU/mL glucose-6-phosphate dehydrogenase), test compound, substrate and microsomal protein in a total volume of 0.2 mL. Control assays contained all components, including dimethyl sulfoxide, but not test ccmpound. All assays were performed in duplicate. The test compound was incubated with 20 to 62 µg/mL microsomal protein, buffer, and the NADPH regenerating system described above at 34°C for 0 or 40 minutes. Aliquots of 180 µL were then removed and assayed for enzyme activity by addition to 7-[^3H]-17α-hydroxypregnenolone (11.2 mCi/mmole; 0.2 µCi per assay) plus unlabeled 17α-hydroxypregnenolone dissolved in DMSO, contributing 2.5% v/v to the final assay mix, and phosphate buffer to give a total substrate concentration of 0.05 µM (=Km) per assay and subsequent incubation at 34°C for 6 minutes. Each assay was terminated by addition of 5 mL of chloroform:methanol (2:1). Carrier steroids representing substrates and produces (17α-hydroxypregnenolone, dehydroepiandrosterone, and androst-5-ene-3β,17β-diol) and 0.8 mL of distilled, deionized water were also added at this time. The steroids were extracted by the method of Moore and Wilson (Methods in Enzymol., eds. O. Malley, B.W. and Hardman, J.G. 36, 1975, pp. 466-474). The organic phase containing the steroids was evaporated using nitrogen gas, the residues dissolved in 18% tetrahydrofuran (v/v) in hexane, and the steroids were separated by HPLC on a Si60 (5 µm) column (250 x 4 mm) using a gradient of 18-22% tetrahydrofuran (v/v) in hexane. Radioactivity in the steroid peaks was measured using a Radiomatic® Model ES or Model A515 Flo-One® detector.
The enzyme activity for each assay was calculated from the percent conversion of substrate to products, and the results were expressed as percent inhibition of control. The following results were obtained, wherein the values indicated are the mean of duplicate determinations: Table 1: […]

Another assay deals with Dunning H Tumor. The assay is described as follows: Dunning H tumor growth in rats. It counts as in vivo, male Copenhagen rats. Particulars: MDL 105831 15 mg/kg/day PO, MDL 15910 50 mg/kg/day PO. An excerpt: As described in J.T. Isaacs & D.S. Coffey, Cancer Res. 41:5070-5075 (1981); W.J. Ellis & J.T. Issacs, Cancer Res. 45:6041-6050 (1985); T.W. Bedding & A.V. Schally, The Prostate 6:219-232 (1985) and P.E. Juniewicz et al. The Prostate 18:105-115 (1991), male Copenhagen rats were obtained from HARLAN-SPRAGUE-DAWLEY Inc. (Indianapolis, IN), and were individually housed in suspended wire cages and provided laboratory rodent chow (Purina 5001 pellets, Purina Mills, St. Louis, MO) and deionized water ad libum. The rats were anesthetized using sodium pentobarbital and the hair was clipped from the back dorsal area. Tumors from donor Copenhagen rats were cut into fragments of 10 mm^3 and implanted subcutaneously (one site per rat) into the prepared dorsal area.
Animals were selected (105 days post implantation) for the treatment phase based on tumor size. Ten animals were anesthetized with sodium pentobarbital and bilaterally castrated. The remaining animals were assigned to treatment groups (ten per group) based on mean group tumor size. Animals were kept separate throughout the study. The tested compounds were prepared in solution or suspension in a lecithin vehicle (L-α-phosphatidylcholine type XV-E) containing methylparaben and propylparaben. All treatments were performed by oral gavage (per os) at 2 cc/kg each day of study. Tumor size and rat body weights were recorded every seven days over a period of 35 days. Twenty-four hours after the last treatment animals were euthenized by CO2 and the tumors, prostate, seminal vesicles and testes were removed and weighed. In Table 4, average tumor growth is determined from the corrected group means over a 35 day period after treatment was started. […] The animals eliminated from the calculation of the corrected means were in Figure 6, animals 8, 9, 10; in Figure 7, animals 18, 19 and 20; in Figure 8, animals 27, 28, 29 and 30; and in Figure 9, animals 37, 39 and 40. The castrated controls in Figure 10 present a different problem. Here it is believed that the different tumor volumes observed throughout the group is attributable to the different sizes at the beginning of the study. Since the mean variance here is clearly attributable to factors other than the effect of the castration itself, animals 47, 48, 49 and 50 were deleted from the corrected mean. Of these, animal 47 died during the treatment period.
Table 4 indicates the average daily growth rate, measured from the corrected mean tumor size on day 35 and day 0, comparing MDL 105831 and flutamide (MDL 15910), a known androgen receptor antagonist. […]

For a further assay, the system named is PC-82 Human Tumor. The assay is described as follows: PC-82 human tumor growth in nude mice. It counts as in vivo, male nude mice. The settings on record: MDL 103432 and MDL 105831 50 mg/kg B.I.D., MDL 15910 15 mg/kg B.I.D., per os. The text has this: As described in van Steenbrugge, G.J. et al., J. Urol 131: 812-817 (1984) van Steenbrugge G.J. et al., The Prostate 11: 195-210 (1987) and Redding, T.W. et al., Cancer Research 52, 2538-2544 (1992), male nude mice (Hsd:athymic, Nude-nu) were obtained from Harlan Sprague Dawley. Mice were housed in sterilized micro-isolators and fed autoclaved ABLE® rodent chow (Purina Mills Inc., St. Louis, MO) and deionized water, adlibitum. Tumor-donating mice were first anesthetized using sodium pentobarbital and then sacrificed by cervical dislocation. The tumor was subsequently excised and placed in a petri dish containing ice-cold Hanks balanced salt solution. Tumors were cut into 2-3 mm cubes for implantation. Recipient animals were first anesthetized with 50 mg/kg pentobarbital, then implanted, by use of a trocar, with tumor fragments (one per mouse) in the dorsal area. Animals were separated into two control groups, one with vehicle alone and the other castrated, and the treatment groups, where n is the number of animals in each group.
Animals were selected for treatment groups based on tumor size. Each test compound was prepared as a solution or suspension in a lecithin vehicle (L-α-phosphatidylcholine type XV-E) containing methylparaben and propylparaben at a dose volume of 10 cc/kg. Animals were treated for 42 days by oral gavage (per os) seven days per week. Twenty-four hours after the last treatment the animals were euthenized by CO2 and tumors were removed and weighed. During the study period, mice were weighed and palpated weekly for tumors. In Table 5, average tumor growth is determined from the corrected group means over a 28 day period after treatment was started. […] The following animal data was deleted before computation of the corrected mean data in Table 5, Fig. 1: animals 4 and 44; Fig. 2: animals 10, 38 and 42; Fig. 3: Animal 39; Fig. 4: Animals 8, 9 and 49; Fig. 5: Animals 37 and 40 and 41.
Table 5 illustrates the average tumor growth in animals treated with 4-aza-17β-(cyclopropyloxy)-5α-androstan-3-one (MDL 103432; 50 mg/kg B.I.D.) 4-aza-17β-(cyclopropylamino)-androst-5(6)-en-3-one (MDL 105831; 50 mg/kg B.I.D.) and flutamide (MDL 15,910; 15 mg/kg B.I.D.), a known androgen receptor antagonist. The average growth rate of each tested compound relative to the vehicle and castrated controls is consistent with the in vivo inhibition of androgens.

One may read the inhibition as the change of the read-out against control, counted positive when it falls.

On to `CN1C(=O)CC[C@@]2(C)C1=CC[C@H]1[C@@H]3CC[C@H](OC4CC4)[C@@]3(C)CC[C@@H]12` (stereo in doubt) [MDL 104,313, 17β-Cyclopropyloxy-4-methyl-4-aza-androst-5-en-3-one], for which, in assay [1] (preincubation 0 min), the inhibition at 0.1 µM is -18.4%, the inhibition at 1 µM turned out to be 23.8% and the inhibition at 10 µM was 63.6%. Moreover, in assay [1] (preincubation 40 min), the inhibition at 0.1 µM is -8.7%, the inhibition at 1 µM was determined as 39.9% and the inhibition at 10 µM is 70.2%.
`CC12C=CC(=O)N[C@@H]1CCC1C2CCC2(C)C1CC[C@@H]2OC1CC1` (stereo partly drawn) [MDL 103,129, 17β-Cyclopropyloxy-4-aza-5α-androst-1-en-3-one]: in assay [1] (preincubation 0 min), the inhibition at 0.1 µM worked out at 6.4%, the inhibition at 1 µM amounted to 40.7% and the inhibition at 10 µM amounted to 77.3%. Besides, in assay [1] (preincubation 40 min), the inhibition at 0.1 µM was determined as 18.3%, the inhibition at 1 µM came out at 46.9% and the inhibition at 10 µM came to 84.3%.
As for `CC(C)C(=O)Nc1ccc([N+](=O)[O-])c(C(F)(F)F)c1` [MDL 15910, N-(3-Trifluoromethyl-4-nitro-phenyl)-isobutyramide, reference compound], the “Tumor Growth in Dunning H Rat, Day 0” value in the assay on Dunning H Tumor (Day 0 (baseline), corrected group mean) was 317.00 mm^3. The “Tumor Growth in Dunning H Rat, Day 7” value with Dunning H Tumor (Day 7, corrected group mean) turned out to be 604.64 mm^3. Further, the “Tumor Growth in Dunning H Rat, Day 16” value in the assay with Dunning H Tumor (Day 16, corrected group mean) is on record as 877.86 mm^3. Also, the “Tumor Growth in Dunning H Rat, Day 21” value in the assay with Dunning H Tumor (Day 21, corrected group mean) was 851.29 mm^3. Also, the “Tumor Growth in Dunning H Rat, Day 29” value with Dunning H Tumor (Day 29, corrected group mean) was found to be 1313.57 mm^3. For the same compound, the “Tumor Growth in Dunning H Rat, Day 35” value in the assay on Dunning H Tumor (Day 35, corrected group mean) was 1214.57 mm^3. The “Δv/Δt (day 35-day 0)” value in the assay with Dunning H Tumor (average daily growth rate from corrected mean tumor size) came out at 25.64 mm^3/day. Also, the “Tumor Growth in PC-82 Human Tumor in Male Nude Mice, Day 7” value in the assay with PC-82 Human Tumor (Day 7, corrected group mean) is given as 222.7 mm^3. Moreover, in the assay with PC-82 Human Tumor (Day 15, corrected group mean), the “Tumor Growth in PC-82 Human Tumor in Male Nude Mice, Day 15” value is 262.9 mm^3. The “Tumor Growth in PC-82 Human Tumor in Male Nude Mice, Day 21” value with PC-82 Human Tumor (Day 21, corrected group mean) worked out at 319.7 mm^3. The “Tumor Growth in PC-82 Human Tumor in Male Nude Mice, Day 28” value in the assay with PC-82 Human Tumor (Day 28, corrected group mean) worked out at 563.4 mm^3. Also, the “Tumor Growth in PC-82 Human Tumor in Male Nude Mice, Day 35” value with PC-82 Human Tumor (Day 35, corrected group mean) is given as 479.3 mm^3. Further, in the assay with PC-82 Human Tumor (Day -4 (before treatment), corrected group mean), the “Tumor Growth in PC-82 Human Tumor in Male Nude Mice, Day -4” value turned out to be 138.7 mm^3. In addition, the “Δv/Δt (day 35-day 7)” value in the assay with PC-82 Human Tumor (average tumor growth over 28 days from corrected group means) is on record as 9.16 mm^3/day.

The values above are taken from patent publication EP0880540B1, “17-BETA-CYCLOPROPYL(AMINO/OXY) 4-AZA STEROIDS AS ACTIVE INHIBITORS OF TESTOSTERONE 5-ALPHA-REDUCTASE AND C17-20-LYASE” (Aventis Pharmaceuticals Inc., priority 1996, dated 1997).
